Reference: patent US6399672B1, “Oil soluble metal-containing compounds, compositions and methods” (Sartomer Technologies Co., Inc., priority 1999, dated 2002)

Assay: Solubility of Zn salts in organic compounds
Conditions: mixed with organic monomers listed per example in b131-b162 (glycol di(meth)acrylates, trimethylolpropane triacrylate etc.)
From the text: The organic compounds tested with the products of each of the preceding examples were as follows: […]

Substance: zinc dimethacrylate
- solubility in organic compounds: insoluble
